# Source: US4985430A, “9-acylamino-tetrahydroacridine derivatives and memory enhancing agent containing said derivative as active ingredient” (priority 1987, dated 1991)
# Structures can show the parent of a compound that is named as a salt.
# Experiments:
# [1] = Acute toxicity test, oral, mouse; details: in vivo
# Procedure: The compound of the present invention was orally administered to a mouse and acute toxicity value was measured.
# [2] = tested on: Na^+ dependent high-affinity choline uptake (HACU) of AF64A-treated rat hippocampus; assay: Na+ dependent high-affinity choline uptake (HACU) in crude synaptosomal fraction of AF64A-treated rat hippocampus; type: biochemical; details: for Improved ratio (% based on Control): HACU, AF64A-treated rat hippocampus synaptosomal fraction, [3H]choline 1 μM, 37° C.
# Procedure: Effects on Na^+ dependent high-affinity choline uptake (HACU) of AF64A-treated rat hippocampus
# According to the method of Fischer et al. [J. Pharm. Exper. Ther., Vol. 222, p. 140 (1982)], AF64A was prepared from AF64. AF64A (1.5 nmole/1.5 μl/side) was injected into rat's both ventricles. After one week, subjecting decapitation, only hippocampus was taken out. It was homogenized with 0.32M of sucrose, centrifuged for 10 minutes at 1000 g, and the supernatant was further centrifuged for 20 minutes at 20,000 g to give crude synaptosomal fraction. The crude synaptosomal fraction and medicament were subjected to incubation at 37° C. for 30 minutes, and after addition of [^3 H]choline (1 μM), they were further subjected to incubation at 37° C. for 10 minutes.
# As a control, the crude synaptosomal fraction was subjected to incubation at 37° C. for 30 minutes, and after addition of choline [^3 H]choline (1 μM), it was further subjected to incubation at 37° C. for 10 minutes to use. The reaction was stopped by subjecting filtration on Whatman GF/B filter. Radioactivity on the filter was measured by a liquid scintillation counter and it was made as the HACU amount. An amount of protein was determined according to the method of Bradford. [Analytical Biochemistry, Vol. 72, p. 248 (1976)].
# [3] = tested on: human Alzheimer's disease; details: in combination with use of lecithin; Summers, N. Engl. J. Med. 315, 1241 (1986); cited from earlier work
compound,measurement,setting,value
O=C1CN(CC(=O)Nc2c3c(nc4ccccc24)CCCC3)C(=O)CN1 [Example 37],LD50,[1],2100 mg/kg
same,Improved ratio (% based on Control),[2]; 10^-4 M,39%
same,Improved ratio (% based on Control),[2]; 10^-5 M,34%
same,Improved ratio (% based on Control),[2]; 10^-6 M,27%
same,Improved ratio (% based on Control),[2]; 10^-7 M,9%
same,Improved ratio (% based on Control),[2]; 10^-8 M,14%
CCOC(=O)CNCC(=O)Nc1c2c(nc3ccccc13)CCCC2 [Example 40],Improved ratio (% based on Control),[2]; 10^-4 M,3%
same,Improved ratio (% based on Control),[2]; 10^-5 M,20%
same,Improved ratio (% based on Control),[2]; 10^-6 M,14%
same,Improved ratio (% based on Control),[2]; 10^-7 M,18%
same,Improved ratio (% based on Control),[2]; 10^-8 M,8%
"CCCC(=O)Nc1c2c(nc3ccccc13)CCC(O)C2 (stereo not drawn) [Example 53, N-(1,2,3,4-tetrahydroacridin-2-ol-9-yl)butanamide]",Improved ratio (% based on Control),[2]; 10^-4 M,14%
same,Improved ratio (% based on Control),[2]; 10^-5 M,15%
same,Improved ratio (% based on Control),[2]; 10^-6 M,23%
same,Improved ratio (% based on Control),[2]; 10^-7 M,18%
same,Improved ratio (% based on Control),[2]; 10^-8 M,14%
O=C(CN1C(=O)CCC1=O)Nc1c2c(nc3ccccc13)CCCC2 [Example 35],Improved ratio (% based on Control),[2]; 10^-4 M,26%
same,Improved ratio (% based on Control),[2]; 10^-5 M,27%
same,Improved ratio (% based on Control),[2]; 10^-6 M,15%
same,Improved ratio (% based on Control),[2]; 10^-7 M,26%
same,Improved ratio (% based on Control),[2]; 10^-8 M,2%
CNC(=O)N1CCc2nc3ccccc3c(NC(=O)CN3CCCC3=O)c2C1 [Example 50],Improved ratio (% based on Control),[2]; 10^-5 M,27%
same,Improved ratio (% based on Control),[2]; 10^-6 M,35%
same,Improved ratio (% based on Control),[2]; 10^-7 M,20%
same,Improved ratio (% based on Control),[2]; 10^-8 M,4%
"CCCC(=O)Nc1c2c(nc3ccccc13)CCCC2 [Example 1, N-(1,2,3,4-tetrahydroacridin-9-yl)butanamide]",LD50,[1],1000 mg/kg
same,Improved ratio (% based on Control),[2]; 10^-4 M,15%
same,Improved ratio (% based on Control),[2]; 10^-5 M,31%
same,Improved ratio (% based on Control),[2]; 10^-6 M,28%
same,Improved ratio (% based on Control),[2]; 10^-7 M,13%
same,Improved ratio (% based on Control),[2]; 10^-8 M,20%
CN1CCc2nc3ccccc3c(NC(=O)CN3CCCC3=O)c2C1 [Example 20],Improved ratio (% based on Control),[2]; 10^-4 M,28%
same,Improved ratio (% based on Control),[2]; 10^-5 M,9%
same,Improved ratio (% based on Control),[2]; 10^-6 M,23%
same,Improved ratio (% based on Control),[2]; 10^-7 M,21%
same,Improved ratio (% based on Control),[2]; 10^-8 M,10%
CC(C)C(=O)Nc1c2c(nc3ccccc13)CCCC2 [Example 3],Improved ratio (% based on Control),[2]; 10^-4 M,21%
same,Improved ratio (% based on Control),[2]; 10^-5 M,19%
same,Improved ratio (% based on Control),[2]; 10^-6 M,11%
same,Improved ratio (% based on Control),[2]; 10^-7 M,16%
same,Improved ratio (% based on Control),[2]; 10^-8 M,13%
"Nc1c2c(nc3ccccc13)CCCC2 [9-Amino-1,2,3,4-tetrahydroacridine, reference compound]",effectiveness in human Alzheimer's disease,[3],effective to human Alzheimer's disease
same,LD50,[1],67 mg/kg
same,Improved ratio (% based on Control),[2]; 10^-4 M,-73%
same,Improved ratio (% based on Control),[2]; 10^-5 M,-11%
same,Improved ratio (% based on Control),[2]; 10^-6 M,8%
same,Improved ratio (% based on Control),[2]; 10^-7 M,5%
same,Improved ratio (% based on Control),[2]; 10^-8 M,2%
same,"high affinity-choline uptake in hippocampus synaptosome of AF64A-injected rat (activation, in words)",[2]; AF64A injected in cerebral ventricles,could not be found out
NC(=O)NCC(=O)Nc1c2c(nc3ccccc13)CCCC2 [Example 46],Improved ratio (% based on Control),[2]; 10^-4 M,27%
same,Improved ratio (% based on Control),[2]; 10^-5 M,13%
same,Improved ratio (% based on Control),[2]; 10^-6 M,28%
same,Improved ratio (% based on Control),[2]; 10^-7 M,11%
same,Improved ratio (% based on Control),[2]; 10^-8 M,-8%
O=C(CN1CCCC1=O)Nc1c2c(nc3sccc13)CCCC2 [Example 27],Improved ratio (% based on Control),[2]; 10^-4 M,9%
same,Improved ratio (% based on Control),[2]; 10^-5 M,41%
same,Improved ratio (% based on Control),[2]; 10^-6 M,25%
same,Improved ratio (% based on Control),[2]; 10^-7 M,19%
same,Improved ratio (% based on Control),[2]; 10^-8 M,5%
O=C(CN1CCCC1=O)Nc1c2c(nc3ccccc13)CCN(Cc1ccccc1)C2 [Example 21],Improved ratio (% based on Control),[2]; 10^-4 M,18%
same,Improved ratio (% based on Control),[2]; 10^-5 M,32%
same,Improved ratio (% based on Control),[2]; 10^-6 M,19%
same,Improved ratio (% based on Control),[2]; 10^-7 M,11%
same,Improved ratio (% based on Control),[2]; 10^-8 M,10%
CCCCC(=O)Nc1c2c(nc3ccccc13)CCCC2 [Example 4],Improved ratio (% based on Control),[2]; 10^-4 M,5%
same,Improved ratio (% based on Control),[2]; 10^-5 M,29%
same,Improved ratio (% based on Control),[2]; 10^-6 M,3%
same,Improved ratio (% based on Control),[2]; 10^-7 M,5%
same,Improved ratio (% based on Control),[2]; 10^-8 M,4%
O=C(CN1CCCC1=O)Nc1c2c(nc3ccccc13)C1CCN2CC1 [Example 22],Improved ratio (% based on Control),[2]; 10^-4 M,4%
same,Improved ratio (% based on Control),[2]; 10^-5 M,30%
same,Improved ratio (% based on Control),[2]; 10^-6 M,10%
same,Improved ratio (% based on Control),[2]; 10^-7 M,16%
same,Improved ratio (% based on Control),[2]; 10^-8 M,13%
"O=C(CN1CCCC1=O)Nc1c2c(nc3ccccc13)CCCC2 [Example 14, 2-(2-oxopyrrolidin-1-yl)-N-(1,2,3,4-tetrahydroacidin-9-yl)acetamide hydrochloride]",LD50,[1],2300 mg/kg
same,Improved ratio (% based on Control),[2]; 10^-4 M,21%
same,Improved ratio (% based on Control),[2]; 10^-5 M,17%
same,Improved ratio (% based on Control),[2]; 10^-6 M,16%
same,Improved ratio (% based on Control),[2]; 10^-7 M,19%
same,Improved ratio (% based on Control),[2]; 10^-8 M,12%
O=C(Cn1ccnc1)Nc1c2c(nc3ccccc13)CCCC2 [Example 41],Improved ratio (% based on Control),[2]; 10^-4 M,20%
same,Improved ratio (% based on Control),[2]; 10^-5 M,46%
same,Improved ratio (% based on Control),[2]; 10^-6 M,18%
same,Improved ratio (% based on Control),[2]; 10^-7 M,5%
same,Improved ratio (% based on Control),[2]; 10^-8 M,5%
"CNCC(=O)Nc1c2c(nc3ccccc13)CCCC2 [Example 39, 9-[(2-methylamino)acetyl-amino]-1,2,3,4-tetrahydroacridine]",Improved ratio (% based on Control),[2]; 10^-4 M,-11%
same,Improved ratio (% based on Control),[2]; 10^-5 M,24%
same,Improved ratio (% based on Control),[2]; 10^-6 M,16%
same,Improved ratio (% based on Control),[2]; 10^-7 M,8%
same,Improved ratio (% based on Control),[2]; 10^-8 M,5%
CC(=O)N(C)CC(=O)Nc1c2c(nc3ccccc13)CCCC2 [Example 42],Improved ratio (% based on Control),[2]; 10^-4 M,11%
same,Improved ratio (% based on Control),[2]; 10^-5 M,29%
same,Improved ratio (% based on Control),[2]; 10^-6 M,30%
same,Improved ratio (% based on Control),[2]; 10^-7 M,14%
same,Improved ratio (% based on Control),[2]; 10^-8 M,11%
Cc1ccc2nc3c(c(NC(=O)CN4CCCC4=O)c2c1)CCCC3 [Example 15],Improved ratio (% based on Control),[2]; 10^-5 M,-2%
same,Improved ratio (% based on Control),[2]; 10^-6 M,28%
same,Improved ratio (% based on Control),[2]; 10^-7 M,-5%
same,Improved ratio (% based on Control),[2]; 10^-8 M,3%
